Experimental data reported in US6355799B1, “Substituted benzene compounds, process for their preparation, and herbicidal and defoliant compositions containing them” (ISK Americas Incorporated, priority 1997, dated 2002).

Assays:
Type in all cases: in vivo
[1] = tested on: upland rice (Oryza sp., var. Tebonnet, RICE); test: Post-emerge test, crop safety; settings: post-emerge, 14 days after application, rating scale 0-100
How it was run: (§1)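 Compounds in acetone were track-sprayed at 187 l/ha, 15–1000 g ai/ha, onto sandy loam pots. Pre-emerge seeds were sown one day before spraying, with surface watering afterwards. Post-emerge plants were at the 2–3 leaf stage and sprayed with 0.25% v/v non-ionic surfactant. Injury was rated 0–100 at 14 days.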

[2] = tested on: field corn (Zea mays L., var. Dekalb 535, CORN); test: Post-emerge test, crop safety; settings: post-emerge, 14 days after application, rating scale 0-100
How it was run: as §1

[3] = tested on: upland rice (Oryza sp., var. Tebonnet, RICE); test: Pre-emerge test, crop safety; settings: pre-emerge, 14 days after application; for phytotoxicity rating RICE (crop damage): scale 0-100; for phytotoxicity rating RICE: rating scale 0-100
How it was run: as §1

[4] = tested on: field corn (Zea mays L., var. Dekalb 535, CORN); test: Pre-emerge test, crop safety; settings: pre-emerge, 14 days after application; for phytotoxicity rating CORN (crop damage): scale 0-100; for phytotoxicity rating CORN: rating scale 0-100
How it was run: as §1

[5] = tested on: johnsongrass (Sorghum halepense, SORHA); test: Post-emerge test, greenhouse herbicide activity screening; settings: post-emerge, 14 days after application, rating scale 0-100
How it was run: (§2)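 Herbicidal damage is scored 0 (none) to 100 (complete plant death) two weeks after a simulated field spray. Rates span 15–1000 g ai/ha, delivered in acetone at 187 l/ha. For post-emergence treatments, plants have 2–3 leaves and the spray carries 0.25% v/v non-ionic surfactant.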

[6] = tested on: green foxtail (Setaria viridis, SETVI); test: as above; settings: post-emerge, 14 days after application, rating scale 0-100
How it was run: as §2

[7] = tested on: ivyleaf morningglory (Ipomoea hederacea, IPOHE); test: as above; settings: post-emerge, 14 days after application, rating scale 0-100
How it was run: as §2

[8] = tested on: large crabgrass (Digitaria sanguinalis, DIGSA); test: as above; settings: post-emerge, 14 days after application, rating scale 0-100
How it was run: as §2

[9] = tested on: lambsquarters (Chenopodium album, CHEAL); test: as above; settings: post-emerge, 14 days after application, rating scale 0-100
How it was run: as §2

[10] = tested on: sicklepod (Cassia obtusifolia, CASOB); test: as above; settings: post-emerge, 14 days after application, rating scale 0-100
How it was run: as §2

[11] = tested on: barnyardgrass (Echinochloa crus-galli, ECHCG); test: as above; settings: post-emerge, 14 days after application, rating scale 0-100
How it was run: as §2

[12] = tested on: redroot pigweed (Amaranthus retroflexus, AMARE); test: as above; settings: post-emerge, 14 days after application
How it was run: as §2

[13] = tested on: velvetleaf (Abutilon theophrasti, ABUTH); test: as above; settings: post-emerge, 14 days after application, rating scale 0-100
How it was run: as §2

[14] = tested on: johnsongrass (Sorghum halepense, SORHA); test: Pre-emerge test, greenhouse herbicide activity screening; settings: pre-emerge, 14 days after application
How it was run: as §1

[15] = tested on: green foxtail (Setaria viridis, SETVI); test: as above; settings: pre-emerge, 14 days after application
How it was run: as §1

[16] = tested on: ivyleaf morningglory (Ipomoea hederacea, IPOHE); test: as above; settings: pre-emerge, 14 days after application
How it was run: as §1

[17] = tested on: large crabgrass (Digitaria sanguinalis, DIGSA); test: as above; settings: pre-emerge, 14 days after application
How it was run: as §1

[18] = tested on: lambsquarters (Chenopodium album, CHEAL); test: as above; settings: pre-emerge, 14 days after application
How it was run: as §1

[19] = tested on: sicklepod (Cassia obtusifolia, CASOB); test: as above; settings: pre-emerge, 14 days after application
How it was run: as §1

[20] = tested on: barnyardgrass (Echinochloa crus-galli, ECHCG); test: as above; settings: pre-emerge, 14 days after application
How it was run: as §1

[21] = tested on: velvetleaf (Abutilon theophrasti, ABUTH); test: as above; settings: pre-emerge, 14 days after application
How it was run: as §1

[22] = tested on: redroot pigweed (Amaranthus retroflexus, AMARE); test: as above; settings: pre-emerge, 14 days after application
How it was run: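 Rating: 0–100 visual injury, 14 DAA. Application: acetone, 187 l/ha, 15–1000 g ai/ha, flat-fan track sprayer with nozzle 40–45 cm above soil or canopy. Post-emerge runs used 0.25% v/v surfactant on 2–3 leaf plants.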

[23] = 250 g ai/ha, rating scale 0-100

## COc1c(Cl)cc(F)c(-n2c(=O)cc(C(F)(F)F)n(C)c2=O)c1NC(=O)C=Cc1ccccc1F [2-125]
[1]; 63 g ai/ha
  RICE phytotoxicity rating (crop damage): 40
[1]; 250 g ai/ha
  RICE phytotoxicity rating (crop damage): 70
[2]; 63 g ai/ha
  CORN phytotoxicity rating (crop damage): 10
[2]; 250 g ai/ha
  CORN phytotoxicity rating (crop damage): 20
[3]; 63 g ai/ha
  phytotoxicity rating RICE (crop damage): 0
[3]; 250 g ai/ha
  phytotoxicity rating RICE (crop damage): 45
[4]; 63 g ai/ha
  phytotoxicity rating CORN (crop damage): 0
[4]; 250 g ai/ha
  phytotoxicity rating CORN (crop damage): 10
[5]; 63 g ai/ha
  SORHA phytotoxicity rating: 30
[5]; 250 g ai/ha
  SORHA phytotoxicity rating: 40
[6]; 63 g ai/ha
  SETVI phytotoxicity rating: 40
[6]; 250 g ai/ha
  SETVI phytotoxicity rating: 60
[7]; 63 g ai/ha
  IPOHE phytotoxicity rating: 100
[7]; 250 g ai/ha
  IPOHE phytotoxicity rating: 100
[8]; 63 g ai/ha
  DIGSA phytotoxicity rating: 20
[8]; 250 g ai/ha
  DIGSA phytotoxicity rating: 40
[9]; 63 g ai/ha
  CHEAL phytotoxicity rating: 100
[9]; 250 g ai/ha
  CHEAL phytotoxicity rating: 100
[10]; 63 g ai/ha
  CASOB phytotoxicity rating: 90
[10]; 250 g ai/ha
  CASOB phytotoxicity rating: 100
[11]; 63 g ai/ha
  ECHCG phytotoxicity rating: 20
[11]; 250 g ai/ha
  ECHCG phytotoxicity rating: 40
[12]; 63 g ai/ha, rating scale 0-100
  AMARE phytotoxicity rating: 100
[12]; [23]
  AMARE phytotoxicity rating: 100
[13]; 63 g ai/ha
  ABUTH phytotoxicity rating: 100
[13]; 250 g ai/ha
  ABUTH phytotoxicity rating: 100
[14]; 63 g ai/ha, scale 0-100
  phytotoxicity rating SORHA: 20
[14]; 250 g ai/ha, scale 0-100
  phytotoxicity rating SORHA: 50
[15]; 63 g ai/ha, scale 0-100
  phytotoxicity rating SETVI: 50
[15]; 250 g ai/ha, scale 0-100
  phytotoxicity rating SETVI: 90
[16]; 63 g ai/ha, scale 0-100
  phytotoxicity rating IPOHE: 0
[16]; 250 g ai/ha, scale 0-100
  phytotoxicity rating IPOHE: 100
[17]; 63 g ai/ha, scale 0-100
  phytotoxicity rating DIGSA: 30
[17]; 250 g ai/ha, scale 0-100
  phytotoxicity rating DIGSA: 90
[18]; 63 g ai/ha, scale 0-100
  phytotoxicity rating CHEAL: 100
[18]; 250 g ai/ha, scale 0-100
  phytotoxicity rating CHEAL: 100
[19]; 63 g ai/ha, scale 0-100
  phytotoxicity rating CASOB: 30
[19]; 250 g ai/ha, scale 0-100
  phytotoxicity rating CASOB: 70
[20]; 63 g ai/ha, scale 0-100
  phytotoxicity rating ECHCG: 10
[20]; 250 g ai/ha, scale 0-100
  phytotoxicity rating ECHCG: 50
[21]; 63 g ai/ha, scale 0-100
  phytotoxicity rating ABUTH: 100
[21]; 250 g ai/ha, scale 0-100
  phytotoxicity rating ABUTH: 100
[22]; 63 g ai/ha, scale 0-100
  phytotoxicity rating AMARE: 100
[22]; 250 g ai/ha, scale 0-100
  phytotoxicity rating AMARE: 100

## COc1c(Cl)cc(F)c(-n2c(=O)cc(C(F)(F)F)n(C)c2=O)c1NN=CC1CC1 [Compound 15-11]
[1]; 63 g ai/ha
  Post-emerge Herbicidal Activity RICE (crop damage rating): 65
[1]; 250 g ai/ha
  Post-emerge Herbicidal Activity RICE (crop damage rating): 99
[2]; 63 g ai/ha
  Post-emerge Herbicidal Activity CORN (crop damage rating): 45
[2]; 250 g ai/ha
  Post-emerge Herbicidal Activity CORN (crop damage rating): 85
[3]; 63 g ai/ha
  phytotoxicity rating RICE: 100
[3]; 250 g ai/ha
  phytotoxicity rating RICE: 100
[4]; 63 g ai/ha
  phytotoxicity rating CORN: 100
[4]; 250 g ai/ha
  phytotoxicity rating CORN: 100
[5]; 63 g ai/ha
  Post-emerge Herbicidal Activity SORHA (phytotoxicity rating): 50
[5]; 250 g ai/ha
  Post-emerge Herbicidal Activity SORHA (phytotoxicity rating): 99
[6]; 63 g ai/ha
  Post-emerge Herbicidal Activity SETVI (phytotoxicity rating): 40
[6]; 250 g ai/ha
  Post-emerge Herbicidal Activity SETVI (phytotoxicity rating): 80
[7]; 63 g ai/ha
  Post-emerge Herbicidal Activity IPOHE (phytotoxicity rating): 100
[7]; 250 g ai/ha
  Post-emerge Herbicidal Activity IPOHE (phytotoxicity rating): 100
[8]; 63 g ai/ha
  Post-emerge Herbicidal Activity DIGSA (phytotoxicity rating): 50
[8]; 250 g ai/ha
  Post-emerge Herbicidal Activity DIGSA (phytotoxicity rating): 95
[9]; 63 g ai/ha
  Post-emerge Herbicidal Activity CHEAL (phytotoxicity rating): 100
[9]; 250 g ai/ha
  Post-emerge Herbicidal Activity CHEAL (phytotoxicity rating): 100
[10]; 63 g ai/ha
  Post-emerge Herbicidal Activity CASOB (phytotoxicity rating): 90
[10]; 250 g ai/ha
  Post-emerge Herbicidal Activity CASOB (phytotoxicity rating): 100
[11]; 63 g ai/ha
  Post-emerge Herbicidal Activity ECHCG (phytotoxicity rating): 50
[11]; 250 g ai/ha
  Post-emerge Herbicidal Activity ECHCG (phytotoxicity rating): 99
[12]; 63 g ai/ha, rating scale 0-100 (0 no damage, 100 complete death)
  Post-emerge Herbicidal Activity AMARE (phytotoxicity rating): 95
[12]; [23]
  Post-emerge Herbicidal Activity AMARE (phytotoxicity rating): 100
[13]; 63 g ai/ha
  Post-emerge Herbicidal Activity ABUTH (phytotoxicity rating): 100
[13]; 250 g ai/ha
  Post-emerge Herbicidal Activity ABUTH (phytotoxicity rating): 100
[14]; 63 g ai/ha, rating scale 0-100
  phytotoxicity rating SORHA: 100
[14]; [23]
  phytotoxicity rating SORHA: 100
[15]; 63 g ai/ha, rating scale 0-100
  phytotoxicity rating SETVI: 100
[15]; [23]
  phytotoxicity rating SETVI: 100
[16]; 63 g ai/ha, rating scale 0-100
  phytotoxicity rating IPOHE: 100
[16]; [23]
  phytotoxicity rating IPOHE: 100
[17]; 63 g ai/ha, rating scale 0-100
  phytotoxicity rating DIGSA: 100
[17]; [23]
  phytotoxicity rating DIGSA: 100
[18]; 63 g ai/ha, rating scale 0-100
  phytotoxicity rating CHEAL: 100
[18]; [23]
  phytotoxicity rating CHEAL: 100
[19]; 63 g ai/ha, rating scale 0-100
  phytotoxicity rating CASOB: 100
[19]; [23]
  phytotoxicity rating CASOB: 100
[20]; 63 g ai/ha, rating scale 0-100
  phytotoxicity rating ECHCG: 100
[20]; [23]
  phytotoxicity rating ECHCG: 100
[21]; 63 g ai/ha, rating scale 0-100
  phytotoxicity rating ABUTH: 100
[21]; [23]
  phytotoxicity rating ABUTH: 100
[22]; 63 g ai/ha, rating scale 0-100
  phytotoxicity rating AMARE: 100
[22]; [23]
  phytotoxicity rating AMARE: 100
